Measurements reported in article PMC11079024, “Identification of a family of species-selective complex I inhibitors as potential anthelmintics” (Nature Communications, 2024).
“And” between values parts separate entries of the source, which are not always exact repeats. Equal entries are not always repeated. Where two headings read alike, the source gives them in different places.

Columns and labels:
L1 wild-type C. elegans [1] = experiment: 15-hour motility assay with drug alone (no KCN); assay type: cell-based, Caenorhabditis elegans; conditions: without KCN, 15-hour; for Value relative to DMSO control, drug alone (without KCN), Mean: mean of replicates; for Value relative to DMSO control, drug alone (without KCN): single replicates
L1 wild-type C. elegans [2] = conditions: drug + KCN, 15-hour; for KCN survival assay value relative to DMSO control, Mean: mean of replicates; for KCN survival assay value relative to DMSO control: single replicates
L1 wild-type C. elegans [3] = experiment: whole plant or invertebrate; conditions: Caenorhabditis elegans, 15 h
C. elegans = C. elegans chemical screens of RIKEN NPD libraries at 50 μM (hit identification in KCN survival and development/viability assays); assay type: cell-based, Caenorhabditis elegans; conditions: screened at 50 μM in triplicate; […]; KCN = KCN survival assay, Dev. & Viability = development/viability assay
[4] = read-out: C. elegans KCN survival assay LC50

SMILES | Value relative to DMSO control, drug alone (without KCN), Mean (L1 wild-type C. elegans [1]; 0.025 µM) | Value relative to DMSO control, drug alone (without KCN) (L1 wild-type C. elegans [1]; 0.025 µM) | Value relative to DMSO control, drug alone (without KCN), Mean (L1 wild-type C. elegans [1]; 0.05 µM) | Value relative to DMSO control, drug alone (without KCN) (L1 wild-type C. elegans [1]; 0.05 µM) | Value relative to DMSO control, drug alone (without KCN), Mean (L1 wild-type C. elegans [1]; 0.1 µM) | Value relative to DMSO control, drug alone (without KCN) (L1 wild-type C. elegans [1]; 0.1 µM) | Value relative to DMSO control, drug alone (without KCN), Mean (L1 wild-type C. elegans [1]; 0.2 µM) | Value relative to DMSO control, drug alone (without KCN) (L1 wild-type C. elegans [1]; 0.2 µM) | Value relative to DMSO control, drug alone (without KCN), Mean (L1 wild-type C. elegans [1]; 0.4 µM) | Value relative to DMSO control, drug alone (without KCN) (L1 wild-type C. elegans [1]; 0.4 µM) | Value relative to DMSO control, drug alone (without KCN), Mean (L1 wild-type C. elegans [1]; 0.8 µM) | Value relative to DMSO control, drug alone (without KCN) (L1 wild-type C. elegans [1]; 0.8 µM) | Value relative to DMSO control, drug alone (without KCN), Mean (L1 wild-type C. elegans [1]; 3.1 µM) | Value relative to DMSO control, drug alone (without KCN) (L1 wild-type C. elegans [1]; 3.1 µM) | Value relative to DMSO control, drug alone (without KCN), Mean (L1 wild-type C. elegans [1]; 6.3 µM) | Value relative to DMSO control, drug alone (without KCN) (L1 wild-type C. elegans [1]; 6.3 µM) | Value relative to DMSO control, drug alone (without KCN), Mean (L1 wild-type C. elegans [1]; 12.5 µM) | Value relative to DMSO control, drug alone (without KCN) (L1 wild-type C. elegans [1]; 12.5 µM) | Value relative to DMSO control, drug alone (without KCN), Mean (L1 wild-type C. elegans [1]; 25 µM) | Value relative to DMSO control, drug alone (without KCN) (L1 wild-type C. elegans [1]; 25 µM) | other results
O=C(Nc1ccc(Oc2ccc(Cl)cc2)c(Cl)c1)c1cc(I)cc(I)c1O [Rafoxanide] | 1.251 | 1.299 and 1.275 and 1.179 | 1.063 | 1.000 and 1.187 | 0.952 | 0.779 and 1.140 and 0.937 | 0.871 | 0.876 and 1.068 and 0.668 | 0.805 | 0.814 and 0.980 and 0.622 | 0.942 | 0.867 and 0.978 and 0.981 | 0.954 | 1.089 and 0.794 and 0.978 | 1.113 | 1.082 and 1.203 and 1.055 | 1.298 | 1.422 and 1.293 and 1.177 | 1.108 | 1.103 and 1.144 and 1.075 | KCN survival assay value relative to DMSO control, Mean (L1 wild-type C. elegans [2]; 0.025 µM): 0.992; KCN survival assay value relative to DMSO control (L1 wild-type C. elegans [2]; 0.025 µM): 1.081 and 1.011 and 0.883; KCN survival assay value relative to DMSO control, Mean (L1 wild-type C. elegans [2]; 0.05 µM): 0.890; KCN survival assay value relative to DMSO control (L1 wild-type C. elegans [2]; 0.05 µM): 0.979 and 0.794 and 0.899; KCN survival assay value relative to DMSO control, Mean (L1 wild-type C. elegans [2]; 0.1 µM): 0.788; KCN survival assay value relative to DMSO control (L1 wild-type C. elegans [2]; 0.1 µM): 1.030 and 0.770 and 0.563; KCN survival assay value relative to DMSO control, Mean (L1 wild-type C. elegans [2]; 0.2 µM): 0.261; KCN survival assay value relative to DMSO control, Mean (L1 wild-type C. elegans [2]; 0.4 µM): 0.0026; KCN survival assay value relative to DMSO control, Mean (L1 wild-type C. elegans [2]; 0.8 µM): 0.0007; KCN survival assay value relative to DMSO control, Mean (L1 wild-type C. elegans [2]; 3.1 µM): 0.000; KCN survival assay value relative to DMSO control (L1 wild-type C. elegans [2]; 3.1 µM): 0.000; KCN survival assay value relative to DMSO control, Mean (L1 wild-type C. elegans [2]; 6.3 µM): 0.0019; KCN survival assay value relative to DMSO control, Mean (L1 wild-type C. elegans [2]; 12.5 µM): 0.000; KCN survival assay value relative to DMSO control (L1 wild-type C. elegans [2]; 12.5 µM): 0.000; KCN survival assay value relative to DMSO control, Mean (L1 wild-type C. elegans [2]; 25 µM): 0.000; KCN survival assay value relative to DMSO control (L1 wild-type C. elegans [2]; 25 µM): 0.000; LC50 (L1 wild-type C. elegans [3]; [4]): 141 nM
Cc1cc(C(C#N)c2ccc(Cl)cc2)c(Cl)cc1NC(=O)c1cc(I)cc(I)c1O (stereo not drawn) [Closantel] | 1.096 | 1.270 and 1.000 and 1.019 | 0.995 | 1.190 and 0.812 and 0.983 | 0.999 | 1.131 and 0.827 and 1.040 | 1.003 | 1.030 and 1.024 and 0.957 | 0.958 | 1.006 and 0.910 and 0.957 | 1.081 | 1.194 and 1.047 and 1.003 | 0.969 | 1.240 and 0.805 and 0.863 | 1.048 | 1.218 and 0.919 and 1.007 | 1.059 | 1.241 and 0.872 and 1.065 | 0.703 | 0.678 and 0.775 and 0.655 | KCN survival assay value relative to DMSO control, Mean (L1 wild-type C. elegans [2]; 0.025 µM): 0.976; KCN survival assay value relative to DMSO control (L1 wild-type C. elegans [2]; 0.025 µM): 0.959 and 0.928 and 1.042; KCN survival assay value relative to DMSO control, Mean (L1 wild-type C. elegans [2]; 0.05 µM): 0.987; KCN survival assay value relative to DMSO control (L1 wild-type C. elegans [2]; 0.05 µM): 1.068 and 0.937 and 0.955; KCN survival assay value relative to DMSO control, Mean (L1 wild-type C. elegans [2]; 0.1 µM): 0.937; KCN survival assay value relative to DMSO control (L1 wild-type C. elegans [2]; 0.1 µM): 0.967 and 0.903 and 0.941; KCN survival assay value relative to DMSO control, Mean (L1 wild-type C. elegans [2]; 0.2 µM): 0.886; KCN survival assay value relative to DMSO control (L1 wild-type C. elegans [2]; 0.2 µM): 1.054 and 0.849 and 0.755; KCN survival assay value relative to DMSO control, Mean (L1 wild-type C. elegans [2]; 0.4 µM): 0.363; KCN survival assay value relative to DMSO control (L1 wild-type C. elegans [2]; 0.4 µM): 0.480 and 0.444 and 0.164; KCN survival assay value relative to DMSO control, Mean (L1 wild-type C. elegans [2]; 0.8 µM): 0.018; KCN survival assay value relative to DMSO control, Mean (L1 wild-type C. elegans [2]; 3.1 µM): 0.000; KCN survival assay value relative to DMSO control, Mean (L1 wild-type C. elegans [2]; 6.3 µM): 0.000; KCN survival assay value relative to DMSO control (L1 wild-type C. elegans [2]; 6.3 µM): 0.000; KCN survival assay value relative to DMSO control, Mean (L1 wild-type C. elegans [2]; 12.5 µM): 0.0065; KCN survival assay value relative to DMSO control, Mean (L1 wild-type C. elegans [2]; 25 µM): 0.0037; LC50 (L1 wild-type C. elegans [3]; [4]): 332 nM
O=C(Nc1cc(Cl)cc(Cl)c1O)c1c(O)c(Cl)cc(Cl)c1Cl [Oxyclozanide] | 0.970 | 1.075 and 0.779 and 1.056 | 1.040 | 0.978 and 1.142 and 1.000 | 1.014 | 1.026 and 1.091 and 0.926 | 0.862 | 0.850 and 0.960 and 0.775 | 0.811 | 0.730 and 0.844 and 0.861 | 0.863 | 0.803 and 1.008 and 0.777 | 0.927 | 0.899 and 1.068 and 0.814 | 0.856 | 0.946 and 0.940 and 0.683 | 0.986 | 0.842 and 1.234 and 0.881 | 0.843 | 0.680 and 1.053 and 0.797 | KCN survival assay value relative to DMSO control, Mean (L1 wild-type C. elegans [2]; 0.025 µM): 1.036; KCN survival assay value relative to DMSO control (L1 wild-type C. elegans [2]; 0.025 µM): 1.103 and 1.007 and 0.999; KCN survival assay value relative to DMSO control, Mean (L1 wild-type C. elegans [2]; 0.05 µM): 1.033; KCN survival assay value relative to DMSO control (L1 wild-type C. elegans [2]; 0.05 µM): 1.103 and 1.025 and 0.972; KCN survival assay value relative to DMSO control, Mean (L1 wild-type C. elegans [2]; 0.1 µM): 0.765; KCN survival assay value relative to DMSO control (L1 wild-type C. elegans [2]; 0.1 µM): 0.944 and 0.659 and 0.693; KCN survival assay value relative to DMSO control, Mean (L1 wild-type C. elegans [2]; 0.2 µM): 0.371; KCN survival assay value relative to DMSO control (L1 wild-type C. elegans [2]; 0.2 µM): 0.478 and 0.398 and 0.238; KCN survival assay value relative to DMSO control, Mean (L1 wild-type C. elegans [2]; 0.4 µM): 0.077; KCN survival assay value relative to DMSO control, Mean (L1 wild-type C. elegans [2]; 0.8 µM): 0.012; KCN survival assay value relative to DMSO control, Mean (L1 wild-type C. elegans [2]; 3.1 µM): 0.000; KCN survival assay value relative to DMSO control (L1 wild-type C. elegans [2]; 3.1 µM): 0.000; KCN survival assay value relative to DMSO control, Mean (L1 wild-type C. elegans [2]; 6.3 µM): 0.000; KCN survival assay value relative to DMSO control (L1 wild-type C. elegans [2]; 6.3 µM): 0.000; KCN survival assay value relative to DMSO control, Mean (L1 wild-type C. elegans [2]; 12.5 µM): 0.0006; KCN survival assay value relative to DMSO control, Mean (L1 wild-type C. elegans [2]; 25 µM): 0.000; KCN survival assay value relative to DMSO control (L1 wild-type C. elegans [2]; 25 µM): 0.000; LC50 (L1 wild-type C. elegans [3]; [4]): 158 nM
CCCC/C=C\C/C=C\CCCCCCCCc1cccc(O)c1C(=O)O [6-heptadeca-9Z,12Z-dienyl salicylic acid] | – | – | – | – | – | – | – | – | – | – | – | – | – | – | – | – | – | – | – | – | Hit Type (C. elegans): KCN; LC50 (L1 wild-type C. elegans [3]; read-out: C. elegans KCN Survival Assay LC50): 3970 nM
